The source of these data is PubChem BioAssay AID1918940 (Molecular Pharmacology Branch, DTP, NCI, 2023).

The subject of this test is NCI-H211 complex spheroid viability. The test is described as follows: Anticancer human tumor NCI-H211 cell line growth inhibition [LSD1].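 For all read-outs here: luminescent viability read after seven days of drug exposure.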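 For viability, T/C: 100% = DMSO vehicle control viability.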 The settings on record: for viability, T/C: stronger effect = lower value. The gist of the method:
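Multicellular complex spheroids of tumor cells with human endothelial cells (HUVEC) and mesenchymal stem cells; the LSD1 inhibitor iadademstat was combined with standard-of-care or investigational agents. Top concentration at or near clinical Cmax, half-log dilutions; final DMSO ≤0.25%.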

The mark [1] stands for this setting: curve of first compound, second compound 0.1 µM.
Setting [2] is: curve of first compound, second compound 0.316 µM.
[3] abbreviates: curve of first compound, second compound 1 µM.
The mark [4] stands for this setting: curve of first compound, second compound 3.16 µM.
[5] abbreviates: curve of first compound, second compound 10 µM.
[6] abbreviates: second compound 0.1 µM, first compound 0.000316 µM.
[7] abbreviates: second compound 0.1 µM, first compound 0.001 µM.
Setting [8] is: second compound 0.1 µM, first compound 0.00316 µM.
The mark [9] stands for this setting: second compound 0.1 µM, first compound 0.01 µM.
Setting [10] is: second compound 0.1 µM, first compound 0.0316 µM.
[11] abbreviates: second compound 0.1 µM, first compound 0.1 µM.
[12] abbreviates: second compound 0.316 µM, first compound 0.000316 µM.
Setting [13] is: second compound 0.316 µM, first compound 0.001 µM.
[14] abbreviates: second compound 0.316 µM, first compound 0.00316 µM.
Where [15] appears, read: second compound 0.316 µM, first compound 0.01 µM.
[16] abbreviates: second compound 0.316 µM, first compound 0.0316 µM.
[17] abbreviates: second compound 0.316 µM, first compound 0.1 µM.
[18] abbreviates: second compound 1 µM, first compound 0.000316 µM.
The mark [19] stands for this setting: second compound 1 µM, first compound 0.001 µM.
Setting [20] is: second compound 1 µM, first compound 0.00316 µM.
The mark [21] stands for this setting: second compound 1 µM, first compound 0.01 µM.
[22] abbreviates: second compound 1 µM, first compound 0.0316 µM.
Setting [23] is: second compound 1 µM, first compound 0.1 µM.
Where [24] appears, read: second compound 3.16 µM, first compound 0.000316 µM.
Where [25] appears, read: second compound 3.16 µM, first compound 0.001 µM.
[26] abbreviates: second compound 3.16 µM, first compound 0.00316 µM.
Setting [27] is: second compound 3.16 µM, first compound 0.01 µM.
[28] abbreviates: second compound 3.16 µM, first compound 0.0316 µM.
[29] abbreviates: second compound 3.16 µM, first compound 0.1 µM.
Where [30] appears, read: second compound 10 µM, first compound 0.000316 µM.
[31] abbreviates: second compound 10 µM, first compound 0.001 µM.
Where [32] appears, read: second compound 10 µM, first compound 0.00316 µM.
Setting [33] is: second compound 10 µM, first compound 0.01 µM.
The mark [34] stands for this setting: second compound 10 µM, first compound 0.0316 µM.
Setting [35] is: second compound 10 µM, first compound 0.1 µM.

“And” between values parts separate entries of the source, which are not always exact repeats. Equal entries are not always repeated.

With `Cn1ncnc1C1c2n[nH]c(=O)c3cc(F)cc(c23)NC1c1ccc(F)cc1` (stereo not given) + NC1CCC(NC2CC2c2ccccc2)CC1, the IC50 under setting [1] stood at 1.91 nM; the concentration for half-maximal inhibition (IC50) under setting [2] was found to be 1.68 nM; the half-inhibitory concentration (IC50) under setting [3] amounted to 1.56 nM; the half-maximal inhibitory concentration (IC50) under setting [4] was determined as 1.24 nM; the IC50 under setting [5] is under 0.316 nM. The viability, T/C under setting [6] was 69.9%; the viability, T/C under setting [7] is 61.4%; the viability, T/C under setting [8] is 39.8%; the viability, T/C under setting [9] was 4.59%; the viability, T/C under setting [10] was 1.93%; the viability, T/C under setting [11] is 2.12%. The viability, T/C is, setting by setting: under setting [12], 67%; under setting [13], 66.3%; under setting [14], 30.7%; under setting [15], 4.65%; under setting [16], 2.59%; under setting [17], 2.43%. In addition, the viability, T/C runs as follows: under setting [18], 59%; under setting [19], 59.9%; under setting [20], 35.7%; under setting [21], 4.84%; under setting [22], 2.31%; under setting [23], 2.49%. In addition, the viability, T/C under setting [24] is 54.7%; the viability, T/C under setting [25] was 53.5%; the viability, T/C under setting [26] was 33.7%; the viability, T/C under setting [27] was 3.84%; the viability, T/C under setting [28] was 2.11%; the viability, T/C under setting [29] was 2.23%. Further, the viability, T/C reads like this: under setting [30], 33.6%; under setting [31], 31.5%; under setting [32], 16%; under setting [33], 1.98%; under setting [34], 0.92%; under setting [35], 1.15%.

`COc1cc(Nc2ncc3c(n2)-c2ccc(Cl)cc2C(c2c(F)cccc2OC)=NC3)ccc1C(=O)O` + NC1CC1c1ccc(-c2cccc(O)c2)cc1: the IC50 is, setting by setting: under setting [1], under 3.16 nM; under setting [2], under 3.16 nM; under setting [3], under 3.16 nM; under setting [4], under 3.16 nM; under setting [5], under 3.16 nM. In addition, the viability, T/C reads like this: under setting [8], 28.2%; under setting [9], 5.72%; under setting [10], 4.04%; under setting [11], 3.29%; (second compound 0.1 µM, first compound 0.316 µM) 4.66%; (second compound 0.1 µM, first compound 1 µM) 3.94%. The viability, T/C was 37.7% under setting [14]; 6.96% under setting [15]; 3.41% under setting [16]; 4.23% under setting [17]; 4.53% (second compound 0.316 µM, first compound 0.316 µM); 3.46% (second compound 0.316 µM, first compound 1 µM). In addition, the viability, T/C was 33.4% under setting [20]; 6.82% under setting [21]; 3.89% under setting [22]; 4.49% under setting [23]; 3.81% (second compound 1 µM, first compound 0.316 µM); 3.95% (second compound 1 µM, first compound 1 µM). In addition, the viability, T/C reads like this: under setting [26], 21.8%; under setting [27], 7.56%; under setting [28], 4.05%; under setting [29], 3.76%; (second compound 3.16 µM, first compound 0.316 µM) 3.87%; (second compound 3.16 µM, first compound 1 µM) 3.54%. The viability, T/C runs as follows: under setting [32], 21.8%; under setting [33], 6.88%; under setting [34], 4.59%; under setting [35], 4.93%; (second compound 10 µM, first compound 0.316 µM) 5.57%; (second compound 10 µM, first compound 1 µM) 4.21%.

Consider `Nc1ncn(C2CC(O)C(CO)S2)c(=O)n1` (stereo not given), for which the viability, T/C by setting is: (compound 0.000949 µM) 74.8% and 46.6%; (compound 0.003 µM) 33.3% and 23.1%; (compound 0.00949 µM) 9.28% and 10.7%; (compound 0.03 µM) 3.02% and 5.29%; (compound 0.0949 µM) 1.96% and 4.56%; (compound 0.3 µM) 2.36% and 4.76%. Under “curve of compound”, the half-inhibitory concentration (IC50) is 1.89 nM and < 0.949 nM.

For `CC(C)CC(NC(=O)C(Cc1ccccc1)NC(=O)c1cnccn1)B(O)O` (stereo not given) + NC1CCC(NC2CC2c2ccccc2)CC1, the IC50 under setting [1] stood at 2 nM; the IC50 under setting [2] was determined as 2.05 nM; the 50% inhibitory concentration (IC50) under setting [3] worked out at 1.79 nM; the IC50 under setting [4] was determined as 1.68 nM; the IC50 under setting [5] is under 0.316 nM. The viability, T/C runs as follows: under setting [6], 73.8%; under setting [7], 88.6%; under setting [8], 29.3%; under setting [9], 2.16%; under setting [10], 3.13%; under setting [11], 6.8%. Further, the viability, T/C is 70.9% under setting [12]; 76% under setting [13]; 35.8% under setting [14]; 1.76% under setting [15]; 0.22% under setting [16]; 0.13% under setting [17]. The viability, T/C is 62.5% under setting [18]; 72.7% under setting [19]; 32.7% under setting [20]; 1.57% under setting [21]; 0.23% under setting [22]; 2.46% under setting [23]. In addition, the viability, T/C runs as follows: under setting [24], 64.3%; under setting [25], 72.3%; under setting [26], 27.4%; under setting [27], 1.43%; under setting [28], 0.97%; under setting [29], 0.14%. The viability, T/C is 44.9% under setting [30]; 45.3% under setting [31]; 14.2% under setting [32]; 0.55% under setting [33]; 0.17% under setting [34]; 0.14% under setting [35].

`CC1(C)CCC(CN2CCN(c3ccc(C(=O)NS(=O)(=O)c4ccc(NCC5CCOCC5)c([N+](=O)[O-])c4)c(Oc4cnc5[nH]ccc5c4)c3)CC2)=C(c2ccc(Cl)cc2)C1`: the viability, T/C (compound 0.0316 µM) was 95.3% and 36.1%; the viability, T/C (compound 0.1 µM) was 98.2% and 43.8%; the viability, T/C (compound 0.316 µM) is 98.3% and 47.9%; the viability, T/C (compound 1 µM) was 124% and 72.7%; the viability, T/C (compound 3.16 µM) is 118% and 99.6%; the viability, T/C (compound 10 µM) is 32.2% and 60.1%.

As to `CCc1c2c(nc3ccc(O)cc13)-c1cc3c(c(=O)n1C2)COC(=O)[C@]3(O)CC`, the viability, T/C is 1.09% and 3.31% (compound 0.000949 µM); 0.88% and 2.36% (compound 0.003 µM); 0.42% and 1.27% (compound 0.00949 µM); 0.59% and 0.51% (compound 0.03 µM); 0.14% and 0.18% (compound 0.0949 µM); 0.21% and 0.25% (compound 0.3 µM). Moreover, the IC50 (curve of compound) is under 0.949 nM.

As usually defined, the IC50 is the concentration that inhibits the measured activity by half. As a reminder, the viability, T/C is the ratio of treated to control.
